Results on 15 compounds are retold here after PubChem BioAssay (NCI).

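96-well plates; 48 h exposure; 5 concentrations. Endpoints by linear interpolation between flanking doses. Not reached: highest tested concentration assigned. TGI: total growth inhibition.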

Holding throughout (experiment): DTP human tumour cell line panel, 48 h
For test [1], the system named is OVCAR-5 ovarian.
The test system of test [2] is SK-OV-3 ovarian.
For test [3], the system named is SF-268 CNS.
Test [4] relates to EKVX NSCLC.
The subject of test [5] is MDA-MB-231 breast.
Test [6] concerns IGROV1 ovarian.
Test [7] relates to HCT-15 colon.
The subject of test [8] is KM12 colon.

Broadly, the TGI is the concentration at which net growth stops. A lower TGI goes with more potent growth arrest. For the compound `COc1cc(/C=N/n2c(-c3ccccc3)nn(C(C)=O)c2=O)cc(OC)c1OC`, the TGI was over 92.6 µM in test [1]; over 39.9 µM in test [2]; over 100 µM in test [3]; 99.2 µM in test [4]; 64.3 µM in test [5]; over 100 µM in test [6]. The total growth inhibition concentration (TGI) was over 100 µM in test [7] and over 59.5 µM in test [8].

As to `CC1(C)Cc2nc3c(cc2C(=O)C1C=N/C(C#N)=C(\N)C#N)C(=O)C(C=N/C(C#N)=C(\N)C#N)C(C)(C)C3` (stereo not given), the total growth inhibition concentration (TGI) in test [1] is 5.48 µM; in test [2], over 34.9 µM; in test [3], 3.39 µM; in test [4], 6.01 µM; in test [5], 22.1 µM; in test [6], 3.56 µM. The values for the TGI in test [7] and in test [8] were 4.48 µM and 3.38 µM, respectively.

`O=C(O)CCSCc1ccccc1`: the total growth inhibition concentration (TGI) in test [1], in test [2], in test [3], in test [4], in test [5] and in test [6] was over 100 µM each time. The TGI in test [7] and in test [8] was over 100 µM each time.

With `CC(=O)OCC1OC(Nn2c(=O)[nH]c3ccccc3c2=O)C(OC(C)=O)C(OC(C)=O)C1OC(C)=O` (stereo not given), the TGI in test [1], in test [2], in test [3], in test [4], in test [5] and in test [6] was over 100 µM throughout. Also, the TGI in test [7] and in test [8] was over 100 µM throughout.

For `CC(=O)OCC1OC(n2c(-c3ccccc3)c(C(C)=O)c(-c3cccc4ccccc34)c(C#N)c2=S)C(OC(C)=O)C(OC(C)=O)C1OC(C)=O` (stereo not given), the TGI in test [1], in test [2], in test [3], in test [4], in test [5] and in test [6] was over 100 µM in each case. Moreover, the TGI in test [7] and in test [8] was over 100 µM throughout.

As to `C=C(CCC/C(C)=C/C=C/[C@@H](C)CCCc1ccoc1)C[C@@H]1OC(=O)[C@H](C)[C@@H]1O`, the TGI in test [1] is over 50 µM; in test [2], 15.8 µM; in test [3], 18.5 µM; in test [4], 19.4 µM; in test [5] it was 16.9 µM; in test [6], 21.7 µM. Moreover, the TGI in test [7] worked out at 21.3 µM; in test [8] it was 16.1 µM.

As for `COc1ccccc1C1ON=C(c2ccc([N+](=O)[O-])cc2)N1C12CC3CC(CC(C3)C1)C2` (stereo not given), the TGI in test [1], in test [2], in test [3], in test [4], in test [5] and in test [6] was over 100 µM in each case. Moreover, the total growth inhibition concentration (TGI) in test [7] and in test [8] was over 100 µM in each case.

In the case of `CC(=O)NC1(c2cc3ccccc3s2)CCCCCC1`, the TGI in test [1] is over 100 µM; in test [2], over 100 µM; in test [3], 40.9 µM; in test [4], 57.3 µM; in test [5] it was over 100 µM; in test [6], over 100 µM. The TGI in test [7] and in test [8] was over 100 µM each time.

Turning to `CC(C)=CCC/C(C)=C/CC/C(C)=C/CC/C(C)=C/CC/C(C)=C/CC/C(C)=C/CC/C(C)=C/CC/C(C)=C/CC/C(C)=C/CO`, the TGI in test [1], in test [2], in test [3], in test [4], in test [5] and in test [6] was over 100 µM in each case. The TGI in test [7] and in test [8] was over 100 µM each time.

As to `NC(Cc1ccc(N(CCCl)CCCl)cc1)C(=O)NC(CCC(=O)O)C(=O)O` (stereo not given), the TGI in test [1], in test [2], in test [3], in test [4], in test [5] and in test [6] was over 100 µM in each case. Further, the TGI in test [7] and in test [8] was over 100 µM throughout.

In the case of `COc1cc(NCCC2CCCCN2)c2ncccc2c1` (stereo not given), the TGI in test [1] was over 100 µM; in test [2] it was over 100 µM; in test [3], over 100 µM; in test [4], over 100 µM; in test [5] it was over 92.1 µM; in test [6], over 100 µM. Moreover, the concentration for total growth inhibition (TGI) in test [7] and in test [8] was over 100 µM each time.

For the compound `[N-]=[N+]=NC(c1cn(C2CC(O)C(CO)O2)c(=O)[nH]c1=O)C(Cl)I` (stereo not given), the TGI in test [1], in test [2], in test [3], in test [4], in test [5] and in test [6] was over 100 µM each time. For the same compound, the TGI in test [7] and in test [8] was over 100 µM throughout.

For the compound `COc1cc(C2c3cc4c(cc3OC(NNS(=O)(=O)c3ccc(C)cc3)C2C)OCO4)cc(OC)c1O` (stereo not given), the TGI was over 100 µM in test [1]; 79.2 µM in test [2]; over 100 µM in test [3]; 49.8 µM in test [4]; 57.5 µM in test [5]; 30.8 µM in test [6]. Besides, the figures for the total growth inhibition concentration (TGI) in test [7] and in test [8] were 22.6 µM and 36.5 µM, respectively.

As for `Cc1c2c(c(O)c3c(O)cccc13)C(=O)C1(O)C(O)=C(C(=O)NCNc3ccc(C(N)=O)cn3)C(=O)C(N(C)C)C1C2` (stereo not given), the total growth inhibition concentration (TGI) in test [1] was 34.2 µM; in test [2], 8.78 µM; in test [3], 79.7 µM; in test [4], over 100 µM; in test [5], over 100 µM; in test [6], 6.27 µM. For the same compound, the TGI is 8.56 µM in test [7] and 15.6 µM in test [8].

For `O=C1C(=O)N(c2cccc(C(F)(F)F)c2)C(=S)N1c1ccccc1`, the TGI in test [1] was 80.5 µM; in test [2], 70.4 µM; in test [3] it was over 100 µM; in test [4], over 100 µM; in test [5], 57.2 µM; in test [6], 63.2 µM. Also, the TGI in test [7] is 40.7 µM; in test [8], over 100 µM.
